This note sets out measurements from PubChem BioAssay (NCI).

The structures appear in SMILES notation.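 Results reflect a 48-hour exposure of cells in 96-well plates to compound at five concentrations. At the TGI there is no net growth.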 Where only a bound is given, the exact number is not on record here.

Holding throughout (experiment): NCI anticancer screen, dose series, 48 h
Assay [1] relates to 786-0 renal.
Assay [2] has as its system ACHN renal.
The subject of assay [3] is MDA-MB-435.
Assay [4] has as its system MOLT-4 leukemia.
In assay [5] the test system is NCI-H23 lung.
For assay [6], the system named is NCI-H522 lung.
Assay [7] has as its system NCI/ADR-RES ovarian.
Assay [8] concerns OVCAR-5 ovarian.
The test system of assay [9] is OVCAR-8 ovarian.
Assay [10] relates to SF-295 CNS.
The subject of assay [11] is T-47D breast.
Assay [12] has as its system TK-10 renal.

Consider `N#CC(=C1CCCCC1)c1nc2ccccc2o1`, for which the TGI in [1] is above 100 µM; in [2], above 100 µM; in [3], above 100 µM; in assay [4], above 100 µM; in [5], above 100 µM; in assay [6], 60.6 µM. Also, the TGI in [7], in assay [8], in [9], in assay [10], in assay [11] and in assay [12] was above 100 µM each time.
Consider `CN(C)CC1COC2Cc3ccccc3C1O2` (configuration not stated), for which the TGI in [1], in [2], in assay [3], in assay [4], in [5] and in [6] was above 100 µM throughout. Also, the TGI in assay [7], in [8], in assay [9], in assay [10], in assay [11] and in assay [12] was above 100 µM throughout.
In the case of `C=C(C)C1CC/C(C)=C/CC[C@]2(C)O[C@H]2CC/C(COC(C)=O)=C\[C@@H]1O` (some centres not stated), the TGI in assay [1], in assay [2], in [3], in assay [4], in assay [5] and in assay [6] was above 50 µM in each case. In addition, the TGI in assay [7], in assay [8], in assay [9], in assay [10], in [11] and in assay [12] was above 50 µM throughout.
Consider `CCCCOC(=O)NC(Nc1cccc(C(F)(F)F)c1)(C(F)(F)F)C(F)(F)F`, for which the TGI in [1], in assay [2], in assay [3], in assay [4], in assay [5] and in assay [6] was above 100 µM in each case. Further, the TGI is above 100 µM in assay [7]; above 100 µM in [8]; above 100 µM in [9]; above 100 µM in assay [10]; 45.3 µM in assay [11]; above 100 µM in [12].
For the molecule `CC(C)OP(=O)(OC(C)C)/C(C#N)=C/c1ccco1`, the TGI in assay [1], in assay [2], in [3], in [4], in [5] and in assay [6] was above 100 µM throughout. For the same molecule, the TGI in assay [7], in [8], in [9], in assay [10], in assay [11] and in [12] was above 100 µM each time.
Take `Cc1nn(C(=O)c2ccncc2)c2c1C(c1ccccc1)SC(N)=N2` (configuration not stated): the TGI in assay [1], in assay [2], in [3], in [4], in [5] and in assay [6] was above 10 µM throughout. The TGI in assay [7], in assay [8], in assay [9], in [10], in assay [11] and in assay [12] was above 10 µM throughout.
Take `Nc1ncc(Cl)c(NCC2(CO)CC(CCc3ccccc3)C2)n1` (configuration not stated): the TGI in [1], in assay [2], in [3], in assay [4], in assay [5] and in assay [6] was above 100 µM each time. In addition, the TGI in [7], in assay [8], in [9], in assay [10], in assay [11] and in [12] was above 100 µM throughout.
Turning to `O=C(Nc1c(C(F)(F)F)cc(-c2ccccc2)[nH]c1=O)N1CCOCC1`, the TGI in assay [1], in assay [2], in assay [3], in assay [4], in assay [5] and in assay [6] was above 100 µM each time. Besides, the TGI in assay [7], in [8], in assay [9], in [10], in [11] and in [12] was above 100 µM each time.
Consider `CC=CCOc1cc(NC(=S)OC(C)C)ccc1Cl` (mixture of isomers), for which the TGI in assay [1] was determined as 31.6 µM; in assay [2], 31.6 µM; in assay [3] it was 49.9 µM; in assay [4], 38.8 µM; in assay [5], 35.1 µM; in assay [6] it was 28 µM. Also, the TGI came out at 31.9 µM in assay [7]; 44.5 µM in assay [8]; 33.9 µM in assay [9]; 35.5 µM in [10]; 35.7 µM in [11]; 29.2 µM in assay [12].
For the molecule `Cc1cc(-c2nc3ccccc3s2)ccc1N`, the TGI in assay [1] is above 79.6 µM; in assay [2], above 95.1 µM; in [3], above 79.8 µM; in assay [4], 82.2 µM; in assay [5], above 80.8 µM; in assay [6], above 61.6 µM. In addition, the TGI is above 87.6 µM in assay [7]; 70.6 µM in [8]; above 89.3 µM in [9]; above 85.3 µM in assay [10]; above 85.9 µM in [11]; above 100 µM in [12].
In the case of `Cc1ccc(S(=O)(=O)N2C[C@](O)(c3ccccc3)[C@H]2C)cc1`, the TGI in assay [1], in assay [2], in assay [3], in assay [4], in [5] and in [6] was above 100 µM each time. In addition, the TGI in assay [7], in assay [8], in assay [9], in assay [10], in [11] and in assay [12] was above 100 µM each time.
